Laboratory results published in patent publication US20240300942A1, “SMALL MOLECULES FOR TREATEMENT OF CANCER” (VRise Therapeutics Inc., priority 2021, published 2024).

How the values were obtained:
MIAPACA-2 cell line = assay: In vitro cell proliferation assay (CCK-8) in MIAPACA-2 cell line; type: cell-based; conditions: Homo sapiens, MIA PaCa-2, 72 hours; for inhibition at 3 µM: TC1: Test Concentration of 3 uM; for inhibition at 10 µM: TC2: Test Concentration of 10 uM
Procedure: (§1) Growth inhibition assays is to be carried out using 10% FBS supplemented media. Cells are to be seeded at a desired concentration of 1,500-6,000 cells/well in a 96-well plate. Test compounds at a concentration range from 1 to 30 uM will be added after 24 hours. Growth will be assessed using the CCK-8 kit for measuring reduction at 0 h (prior to the addition of the test compound) and 72 hours after the addition of test compound. Absorbance read on a BIO-RAD iMark Microplate or any equivalent microplate reader at a wavelength of 450 nm. Data was analysed and percent inhibition due to the test compound compared to the control is calculated accordingly.

NCI-H358 cell line = assay: In vitro cell proliferation assay (CCK-8) in NCI-H358 cell line; type: cell-based; conditions: Homo sapiens, 72 hours; for inhibition at 3 µM: TC1: Test Concentration of 3 uM; for inhibition at 10 µM: TC2: Test Concentration of 10 uM
Procedure: as §1

Row | SMILES | inhibition at 3 µM (MIAPACA-2 cell line) [%] | inhibition at 10 µM (MIAPACA-2 cell line) [%] | inhibition at 3 µM (NCI-H358 cell line) [%] | inhibition at 10 µM (NCI-H358 cell line) [%]
1 | C=CC(=O)N1CCN(c2nc(N3CC(C)OC(C)C3)c(C#N)c3c2CCN(c2cccc4ccccc24)C3)CC1CC#N (racemic) [Ex 13, 1-(4-acryloyl-3-(cyanomethyl)piperazin-1-yl)-3-(2,6-dimethylmorpholino)-6-(naphthalen-1-yl)-5,6,7,8-tetrahydro-2,6-naphthyridine-4-carbonitrile] | 75 to 100 | 75 to 100 |  | 
2 | C=CC(=O)N1CCN(c2nc(N3CC(C)OC(C)C3)c(C#N)c3c2CCN(c2cccc4ccccc24)C3)C[C@@H]1CC#N (single isomer, unassigned) [Ex 14] | 75 to 100 | 75 to 100 |  | 
3 | C=CC(=O)N1CCN(c2nc(N3CC(C)OC(C)C3)c(C#N)c3c2CCN(c2cccc4ccccc24)C3)C[C@H]1CC#N (single isomer, unassigned) [Ex 15] | 75 to 100 | 75 to 100 |  | 
4 | C=CC(=O)N1CCN(c2nc(N3CCS(=O)(=O)CC3)c(C#N)c3c2CCN(c2cccc4ccccc24)C3)CC1 [Ex 1, 1-(4-acryloylpiperazin-1-yl)-3-(1,1-dioxidothiomorpholino)-6-(naphthalen-1-yl)-5,6,7,8-tetrahydro-2,6-naphthyridine-4-carbonitrile] |  | 75 to 100 |  | 
5 | C=CC(=O)N1CCN(c2nc(OC[C@@H]3CCCN3C)c(C#N)c3c2CCN(c2cccc4cccc(Cl)c24)C3)CC1 [Ex 8, (S)-1-(4-acryloylpiperazin-1-yl)-6-(8-chloronaphthalen-1-yl)-3-((1-methylpyrrolidin-2-yl)methoxy)-5,6,7,8-tetrahydro-2,6-naphthyridine-4-carbonitrile] | 25 to 50 | 75 to 100 |  | 
6 | C=CC(=O)N1CCN(c2nc(OC[C@@H]3CCCN3C)c(C#N)c3c2CCN(c2cc(O)cc4ccccc24)C3)CC1 [Ex 9, (S)-1-(4-acryloylpiperazin-1-yl)-6-(3-hydroxynaphthalen-1-yl)-3-((1-methylpyrrolidin-2-yl)methoxy)-5,6,7,8-tetrahydro-2,6-naphthyridine-4-carbonitrile] | 75 to 100 | 75 to 100 |  | 
7 | C=C(F)C(=O)N1CCN(c2nc(OC[C@@H]3CCCN3C)c(C#N)c3c2CCN(c2ncnc4ccccc24)C3)CC1 [Ex 10, (S)-1-(4-(2-fluoroacryloyl)piperazin-1-yl)-3-((1-methylpyrrolidin-2-yl)methoxy)-6-(quinazolin-4-yl)-5,6,7,8-tetrahydro-2,6-naphthyridine-4-carbonitrile] | 75 to 100 | 75 to 100 |  | 
8 | C=CS(=O)(=O)N1CCN(c2nc(OC[C@@H]3CCCN3C)c(C#N)c3c2CCN(c2cccc4cccc(Cl)c24)C3)CC1 [Ex 11, (S)-6-(8-chloronaphthalen-1-yl)-3-((1-methylpyrrolidin-2-yl)methoxy)-1-(4-(vinylsulfonyl)piperazin-1-yl)-5,6,7,8-tetrahydro-2,6-naphthyridine-4-carbonitrile] | 75 to 100 | 75 to 100 |  | 
9 | C=C(F)C(=O)N1CCN(c2nc(OC[C@@H]3CCCN3C)c(C#N)c3c2CCN(c2cccc4cccc(Cl)c24)C3)CC1C (stereo partly drawn) [Ex 12, 6-(8-chloronaphthalen-1-yl)-1-(4-(2-fluoroacryloyl)-3-methylpiperazin-1-yl)-3-(((S)-1-methylpyrrolidin-2-yl)methoxy)-5,6,7,8-tetrahydro-2,6-naphthyridine-4-carbonitrile] | 50 to 75 | 75 to 100 |  | 
10 | C=CC(=O)N1CCN(c2nc(OC[C@@H]3CCCN3C)c(C#N)c3c2CCN(c2cccc4ccccc24)C3)C[C@@H]1CC#N [Ex 17, 1-((S)-4-acryloyl-3-(cyanomethyl)piperazin-1-yl)-3-(((S)-1-methylpyrrolidin-2-yl)methoxy)-6-(naphthalen-1-yl)-5,6,7,8-tetrahydro-2,6-naphthyridine-4-carbonitrile] | 75 to 100 | 75 to 100 |  | 
11 | C=CC(=O)N1CCN(c2nc(OC[C@@H]3CCCN3C)c(C#N)c3c2CCN(c2cccc4ccccc24)C3)C[C@H]1CC#N [Ex 18, 1-((R)-4-acryloyl-3-(cyanomethyl)piperazin-1-yl)-3-(((S)-1-methylpyrrolidin-2-yl)methoxy)-6-(naphthalen-1-yl)-5,6,7,8-tetrahydro-2,6-naphthyridine-4-carbonitrile] | 75 to 100 | 75 to 100 |  | 
12 | C=CC(=O)N1CCN(c2nc(OC[C@@H]3CCCN3C)c(C#N)c3c2CCN(c2cc(O)cc4ccccc24)C3)CC1CC#N (stereo partly drawn) [Ex 19, 1-(4-acryloyl-3-(cyanomethyl)piperazin-1-yl)-6-(3-hydroxynaphthalen-1-yl)-3-(((S)-1-methylpyrrolidin-2-yl)methoxy)-5,6,7,8-tetrahydro-2,6-naphthyridine-4-carbonitrile] | 75 to 100 | 75 to 100 |  | 
13 | C=C(F)C(=O)N1CCN(c2nc(OC[C@@H]3CCCN3C)c(C#N)c3c2CCN(c2cccc4ccccc24)C3)CC1CC#N (stereo partly drawn) [Ex 20, 1-(3-(cyanomethyl)-4-(2-fluoroacryloyl)piperazin-1-yl)-3-(((S)-1-methylpyrrolidin-2-yl)methoxy)-6-(naphthalen-1-yl)-5,6,7,8-tetrahydro-2,6-naphthyridine-4-carbonitrile] | 50 to 75 | 75 to 100 |  | 
14 | C=CC(=O)N1CCN(c2nc(OC[C@@H]3CCCN3C)c(C#N)c3c2CCN(c2cncc4ccccc24)C3)CC1 [Ex 21, (S)-1-(4-acryloylpiperazin-1-yl)-6-(isoquinolin-4-yl)-3-((1-methylpyrrolidin-2-yl)methoxy)-5,6,7,8-tetrahydro-2,6-naphthyridine-4-carbonitrile] | 50 to 75 | 50 to 75 |  | 
15 | C=C(F)C(=O)N1CCN(c2nc(OC[C@@H]3CCCN3C)c(C#N)c3c2CCN(c2cccc4cccc(Cl)c24)C3)CC1CC#N (stereo partly drawn) [Ex 26, 6-(8-chloronaphthalen-1-yl)-1-(3-(cyanomethyl)-4-(2-fluoroacryloyl)piperazin-1-yl)-3-(((S)-1-methylpyrrolidin-2-yl)methoxy)-5,6,7,8-tetrahydro-2,6-naphthyridine-4-carbonitrile] |  |  | 25 to 50 | 75 to 100
16 | C=C(F)C(=O)N1CCN(c2nc(OC[C@@H]3CCCN3C)c(C#N)c3c2CCN(c2cccc4cccc(Cl)c24)C3)C[C@@H]1CC#N [Ex 27, 6-(8-chloronaphthalen-1-yl)-1-((S)-3-(cyanomethyl)-4-(2-fluoroacryloyl)piperazin-1-yl)-3-(((S)-1-methylpyrrolidin-2-yl)methoxy)-5,6,7,8-tetrahydro-2,6-naphthyridine-4-carbonitrile] |  |  | 50 to 75 | 75 to 100
17 | C=CC(=O)N1CCN(c2nc(N3CCN(C(=O)C=C)CC3)c3c(c2C#N)CN(Cc2ccccc2)CC3)CC1 [Ex 32, 1,3-bis(4-acryloylpiperazin-1-yl)-6-benzyl-5,6,7,8-tetrahydro-2,6-naphthyridine-4-carbonitrile] |  |  |  | 50 to 75
18 | C=CC(=O)Oc1nc(N2CCN(C(=O)C=C)CC2)c2c(c1C#N)CN(Cc1ccccc1)CC2 [Ex 33, 1-(4-acryloylpiperazin-1-yl)-6-benzyl-4-cyano-5,6,7,8-tetrahydro-2,6-naphthyridin-3-yl acrylate] |  |  |  | ≤ 25
19 | C=CC(=O)N1CCN(c2nc(N3CCOCC3)c(C#N)c3c2CCN(Cc2ccccc2)C3)CC1 [Ex 34, 1-(4-acryloylpiperazin-1-yl)-6-benzyl-3-morpholino-5,6,7,8-tetrahydro-2,6-naphthyridine-4-carbonitrile] |  |  |  | 25 to 50
20 | C=CC(=O)N1CCN(c2nc(N3CCN(C)CC3)c(C#N)c3c2CCN(Cc2ccccc2)C3)CC1 [Ex 35, 1-(4-acryloylpiperazin-1-yl)-6-benzyl-3-(4-methylpiperazin-1-yl)-5,6,7,8-tetrahydro-2,6-naphthyridine-4-carbonitrile] |  |  |  | 25 to 50
21 | C=CC(=O)N1CCN(c2nc(N3CCN(C)CC3)c(C#N)c3c2CCN(Cc2ccccc2)C3)CC1CC#N (centres unmarked) [Ex 36, 1-(4-acryloyl-3-(cyanomethyl)piperazin-1-yl)-6-benzyl-3-(4-methylpiperazin-1-yl)-5,6,7,8-tetrahydro-2,6-naphthyridine-4-carbonitrile] |  |  |  | 25 to 50
22 | C=CC(=O)N1CCN(c2nc(N3CCN(C)CC3)c(C#N)c3c2CCN(C(=O)c2cccc4ccccc24)C3)CC1CC#N (centres unmarked) [Ex 37, 6-(1-naphthoyl)-1-(4-acryloyl-3-(cyanomethyl)piperazin-1-yl)-3-(4-methylpiperazin-1-yl)-5,6,7,8-tetrahydro-2,6-naphthyridine-4-carbonitrile] |  |  |  | 75 to 100
23 | C=CC(=O)N1CCN(c2nc(N3CCN(C)CC3)c(C#N)c3c2CCN(Cc2ccccc2)C3)[C@@H](C)C1 [Ex 38, (S)-1-(4-acryloyl-2-methylpiperazin-1-yl)-6-benzyl-3-(4-methylpiperazin-1-yl)-5,6,7,8-tetrahydro-2,6-naphthyridine-4-carbonitrile] |  |  |  | ≤ 25
24 | C=CC(=O)N1CCN(c2nc(N3CCN(C)CC3)c(C#N)c3c2CCN(Cc2ccccc2)C3)[C@H](C)C1 [Ex 39, (R)-1-(4-acryloyl-2-methylpiperazin-1-yl)-6-benzyl-3-(4-methylpiperazin-1-yl)-5,6,7,8-tetrahydro-2,6-naphthyridine-4-carbonitrile] |  |  |  | 25 to 50
25 | C=CC(=O)N1CCN(c2nc(O)c(C#N)c3c2CCN(Cc2ccccc2)C3)CC1 [Ex 40, 1-(4-acryloylpiperazin-1-yl)-6-benzyl-3-hydroxy-5,6,7,8-tetrahydro-2,6-naphthyridine-4-carbonitrile] |  |  |  | ≤ 25
26 | C=CC(=O)N1CCN(c2nc(N3CCN(C)CC3)c(C#N)c3c2CCN(c2cccc4ccccc24)C3)CC1 [Ex 41, 1-(4-acryloylpiperazin-1-yl)-3-(4-methylpiperazin-1-yl)-6-(naphthalen-1-yl)-5,6,7,8-tetrahydro-2,6-naphthyridine-4-carbonitrile] |  |  |  | 25 to 50
